Source: article PMC9697826 (Pharmaceuticals, 2022)

Legend:
colon cancer cells = tested on: colon cancer cells; design: method as in PMID 33088219; conditions: treatment with the FABP4 inhibitor; cited from earlier work
FABP4 = molecular target: T1, FABP4 (Homo sapiens, UniProt P15090); assay: FABP4 Inhibitor/Ligand Screening Assay Kit: displacement of a fluorescent detection reagent; format: binding; conditions: for IC50: displacement of detection reagent from FABP4, compounds diluted in PBS pH 7.4, fluorescence em 470 nm, ex 370 nm; for FABP4 inhibitory activity, IC50 in words: summary statement in conclusions
T1 construct: purchased Cayman Chemical 10010231
T1 sequence (P15090 whole entry): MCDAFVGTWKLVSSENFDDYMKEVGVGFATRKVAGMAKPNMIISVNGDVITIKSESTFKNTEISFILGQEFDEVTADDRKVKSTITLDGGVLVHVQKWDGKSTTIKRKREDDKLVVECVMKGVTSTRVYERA
Protocol: FABP4 inhibitory activity was assessed by measuring the decrease in fluorescent signal of a detection reagent (DR) when displaced by a strong FABP4 ligand. […] Therefore, any effective ligand of the protein, which binds to the same binding pocket and can displace the DR, determines a reduction in the fluorescence read-out. The new molecular series was screened in a two-step procedure. Firstly, a single concentration of 5 µM was used to gain an estimation of the overall inhibitory effect of all the molecules.
To analyze the inhibitory activity of FABP4 ligands, a displacement assay was utilized as described by the Cayman’s instruction, FABP4 Inhibitor/Ligand Screening Assay Kit, Item 10,010,231 (see Supplementary Materials for additional details). The samples of compounds for activity determination were prepared as a stock solution (1 mM) in DMSO. On the day of activity assay, the compounds were all diluted in phosphate buffer solution (PBS, pH 7.4) to different concentrations (100, 50, 10, 5, 2, 1, and 0 µM). Appropriate concentrations of DMSO in PBS were used as control. The detection reagent (FABP Assay Detection Reagent, Item 10010376) was used as provided by the Cayman’s kit. The diluted Detection Reagent probe was mixed with FABP4 protein present in the kit and incubated for 10 min at room temperature. Compounds were then added and equilibrated for another 10 min. Lastly, the fluorescence signal was recorded at 470 nm (i.e., emission, with the excitation fixed at 370 nm) with a CytoFluor® Series 4000 Fluorescence Multi-Well Plate Reader.

IC50 (FABP4) | FABP4 inhibitory activity, IC50 in words (FABP4) | melting point | SMILES | migration and invasion of colon cancer cells (colon cancer cells)
 |  |  | CCc1c(-c2ccccc2)c(-c2ccccc2)nn1-c1ccccc1-c1cccc(OCC(=O)O)c1 [BMS309403] | weakened
8.27 ± 0.2 µM | low micromolar range | 228 to 230 °C | CCCNC(=O)c1c(-c2ccccc2)n[nH]c(=O)c1N [Compound 4b, 5-Amino-6-oxo-3-phenyl-1,6-dihydropyridazine-4-carboxylic acid propylamide] | 
15.2 ± 0.76 µM | low micromolar range | 170 to 172 °C | N#Cc1c(-c2ccccc2)nn(C2CCCCC2)c(=O)c1N [Compound 22, 5-Amino-1-cyclohexyl-6-oxo-3-phenyl-1,6-dihydropyridazine-4-carbonitrile] | 
2.97 ± 0.26 µM | low micromolar range | > 300 °C | Cn1nc(-c2ccccc2)cc(NC(N)=O)c1=O [Compound 25a, (2-Methyl-3-oxo-6-phenyl-2,3-dihydro-pyridazin-4-yl)urea] | 
> 50 µM |  | 270 to 271 °C | CCn1nc(-c2ccccc2)cc(NC(N)=O)c1=O [Compound 25c, (2-Ethyl-3-oxo-6-phenyl-2,3-dihydro-pyridazin-4-yl)urea] | 
> 50 µM |  | 273 to 275 °C | CCCn1nc(-c2ccccc2)cc(NC(N)=O)c1=O [Compound 25e, (3-Oxo-6-phenyl-2-propyl-2,3-dihydro-pyridazin-4-yl)urea] | 
> 50 µM |  | 168 to 170 °C | CSc1nnc(-c2ccccc2)cc1N [Compound 27, 3-Methylsulfanyl-6-phenyl-pyridazin-4-ylamine] | 
23.2 ± 0.52 µM | low micromolar range |  | Cn1nc(-c2ccccc2)cc(Nc2ccccc2C#N)c1=O [Compound 30b, 2-(2-Methyl-3-oxo-6-phenyl-2,3-dihydro-pyridazin-4-ylamino)benzonitrile] | 
> 50 µM |  | 213 to 215 °C | CC(=O)N1CCN(C(=O)c2ccc(Nc3cc(-c4ccccc4)nn(C)c3=O)cc2)CC1 [Compound 35, 4-[4-(4-Acetyl-piperazine-1-carbonyl)-phenylamino]-2-methyl-6-phenylpyridazin-3(2H)-one] | 
 |  | 270 to 272 °C | CC(=O)Nc1ccc(-c2cc(N)c(=O)n(C)n2)cc1 [Compound 44, N-[4-(5-Amino-1-methyl-6-oxo-1,6-dihydropyridazin-3-yl)-phenyl]-acetamide] | 
 |  | 294 to 295 °C | Cn1nc(-c2ccccn2)cc(N)c1=O [Compound 48, 4-Amino-2-methyl-6-pyridin-2-yl-pyridazin-3(2H)-one] | 
 |  | > 300 °C | Cn1nc(-c2ccccn2)cc(NC(N)=O)c1=O [Compound 49, (2-Methyl-3-oxo-6-pyridin-2-yl-2,3-dihydropyridazin-4-yl)-urea] | 
 |  | 215 to 217 °C | Cn1nc(-c2ccccc2)cc(C(N)=O)c1=O [Compound 51, 2-Methyl-3-oxo-6-phenyl-2,3-dihydropyridazine-4-carboxamide] | 
> 50 µM |  |  | Cc1cc(N)c(=O)n(-c2ccccc2)n1 [Compound 54] | 
> 50 µM |  | 288 to 290 °C | Cc1cc(NC(N)=O)c(=O)n(-c2ccccc2)n1 [Compound 55, 1-(6-Methyl-3-oxo-2-phenyl-2,3-dihydropyridazin-4-yl)urea] | 
 |  | 119 to 121 °C | Cc1nn(-c2ccccc2)c(=O)c(N)c1-c1ccn[nH]1 [Compound 57, 4-Amino-6-methyl-2-phenyl-5-(1H-pyrazol-5-yl)pyridazin-3(2H)-one] | 
